Results: ChEMBL document CHEMBL3397029, “Development of potent dopamine-norepinephrine uptake inhibitors (DNRIs) based on a (2S,4R,5R)-2-benzhydryl-5-((4-methoxybenzyl)amino)tetrahydro-2H-pyran-4-ol molecular template” (Bioorg Med Chem, 2015)

What was measured:
[1] = biological target: Norepinephrine transporter (Rattus norvegicus, UniProt Q9WTR4); experiment: Inhibition of [ring 2,5,6-3H]dopamine reuptake in rat cerebral cortex NET; format: tissue-based
[2] = biological target: Sodium-dependent serotonin transporter (Rattus norvegicus, UniProt P31652); experiment: Inhibition of [1,2-3H]serotonin reuptake in rat cerebral cortex SERT; format: tissue-based
[3] = biological target: Sodium-dependent dopamine transporter (Rattus norvegicus, UniProt P23977); experiment: Inhibition of [ring 2,5,6-3H]dopamine reuptake in rat striatum DAT; format: tissue-based
Rattus norvegicus [4] = species: Rattus norvegicus; experiment: Selectivity ratio of Ki for rat striatum DAT to Ki for rat cerebral cortex SERT; format: tissue-based
Rattus norvegicus [5] = species: Rattus norvegicus; experiment: Selectivity ratio of Ki for rat cerebral cortex NET to Ki for rat cerebral cortex SERT
[6] = biological target: Sodium-dependent serotonin transporter (Rattus norvegicus) (UniProt P31652); experiment: Ratio of fluoxetine Ki to compound Ki for rat cerebral cortex SERT; format: tissue-based
Sequence of Sodium-dependent serotonin transporter (Rattus norvegicus) (P31652 whole entry): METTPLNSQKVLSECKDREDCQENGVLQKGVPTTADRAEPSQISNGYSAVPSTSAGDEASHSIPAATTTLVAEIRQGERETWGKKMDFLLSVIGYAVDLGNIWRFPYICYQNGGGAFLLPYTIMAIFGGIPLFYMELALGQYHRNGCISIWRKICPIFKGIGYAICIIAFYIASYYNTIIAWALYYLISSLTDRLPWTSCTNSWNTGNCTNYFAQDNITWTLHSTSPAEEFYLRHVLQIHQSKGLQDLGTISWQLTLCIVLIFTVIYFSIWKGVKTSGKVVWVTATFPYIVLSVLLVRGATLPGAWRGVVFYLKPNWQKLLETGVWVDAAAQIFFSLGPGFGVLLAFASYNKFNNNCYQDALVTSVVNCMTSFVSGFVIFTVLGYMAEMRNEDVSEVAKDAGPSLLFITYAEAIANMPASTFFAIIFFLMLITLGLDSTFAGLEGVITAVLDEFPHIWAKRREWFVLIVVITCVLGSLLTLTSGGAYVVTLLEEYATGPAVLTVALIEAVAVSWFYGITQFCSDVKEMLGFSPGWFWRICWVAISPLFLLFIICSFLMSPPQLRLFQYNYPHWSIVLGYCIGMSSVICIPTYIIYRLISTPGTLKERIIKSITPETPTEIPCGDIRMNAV

Sequence of Sodium-dependent dopamine transporter (P23977 whole entry): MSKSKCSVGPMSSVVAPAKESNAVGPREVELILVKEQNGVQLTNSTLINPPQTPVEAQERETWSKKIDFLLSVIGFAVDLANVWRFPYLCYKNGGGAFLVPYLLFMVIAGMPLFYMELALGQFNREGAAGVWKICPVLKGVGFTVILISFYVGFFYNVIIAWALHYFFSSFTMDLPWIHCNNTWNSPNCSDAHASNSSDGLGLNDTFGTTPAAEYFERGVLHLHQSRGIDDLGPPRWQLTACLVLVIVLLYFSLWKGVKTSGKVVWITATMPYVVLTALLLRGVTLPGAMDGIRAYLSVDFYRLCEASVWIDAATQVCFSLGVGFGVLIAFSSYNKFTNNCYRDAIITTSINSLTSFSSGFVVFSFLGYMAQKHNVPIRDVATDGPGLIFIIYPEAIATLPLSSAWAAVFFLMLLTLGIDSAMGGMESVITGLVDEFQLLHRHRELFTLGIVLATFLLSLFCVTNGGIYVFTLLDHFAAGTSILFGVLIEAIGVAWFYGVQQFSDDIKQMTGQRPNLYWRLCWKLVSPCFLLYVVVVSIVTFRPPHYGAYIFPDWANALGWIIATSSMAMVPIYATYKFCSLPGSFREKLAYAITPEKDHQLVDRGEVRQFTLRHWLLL
Sequence of Norepinephrine transporter (Q9WTR4 whole entry): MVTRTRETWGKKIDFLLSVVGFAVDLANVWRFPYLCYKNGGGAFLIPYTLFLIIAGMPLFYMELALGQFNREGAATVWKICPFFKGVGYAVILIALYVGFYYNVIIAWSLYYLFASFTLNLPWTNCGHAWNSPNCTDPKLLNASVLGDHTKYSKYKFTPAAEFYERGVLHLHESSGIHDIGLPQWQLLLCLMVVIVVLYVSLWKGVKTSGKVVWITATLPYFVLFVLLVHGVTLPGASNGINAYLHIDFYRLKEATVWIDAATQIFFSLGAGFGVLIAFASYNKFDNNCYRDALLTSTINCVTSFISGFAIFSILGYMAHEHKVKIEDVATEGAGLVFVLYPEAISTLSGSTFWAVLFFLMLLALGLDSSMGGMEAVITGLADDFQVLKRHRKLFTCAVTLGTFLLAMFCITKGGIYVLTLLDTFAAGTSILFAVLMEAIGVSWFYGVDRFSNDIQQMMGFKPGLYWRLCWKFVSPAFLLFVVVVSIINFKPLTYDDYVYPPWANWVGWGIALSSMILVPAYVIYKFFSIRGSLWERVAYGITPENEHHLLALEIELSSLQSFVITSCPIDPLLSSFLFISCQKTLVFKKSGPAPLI
Sequence of Sodium-dependent serotonin transporter (P31652 whole entry): as the sequence (P31652 whole entry) above

Ki [1] | SMILES | Ki [2] | further results
33.7 nM | COc1cc(CN[C@@H]2CO[C@H](C(c3ccccc3)c3ccccc3)C[C@H]2O)ccc1O | 223 nM | 
10.2 nM | O[C@@H]1C[C@@H](C(c2ccc(F)cc2)c2ccc(F)cc2)OC[C@H]1NCc1ccc2c(c1)OCO2 | 400 nM | 
25.8 nM | O[C@@H]1C[C@@H](C(c2ccc(F)cc2)c2ccc(F)cc2)OC[C@H]1NCc1ccc2c(c1)CCO2 |  | 
33.6 nM | O[C@@H]1C[C@@H](C(c2ccccc2)c2ccccc2)OC[C@H]1NCc1ccc2occc2c1 |  | 
30.2 nM | COc1ccc(CN[C@@H]2CO[C@H](C(c3ccccc3)c3ccccc3)C[C@H]2O)cc1O |  | 
44.2 nM | COc1cc(O)cc(CN[C@@H]2CO[C@H](C(c3ccccc3)c3ccccc3)C[C@H]2O)c1 |  | 
152 nM | Oc1cc(O)cc(CN[C@@H]2CO[C@H](C(c3ccccc3)c3ccccc3)C[C@H]2O)c1 |  | 
5.85 nM | COc1cccc(CN[C@@H]2CO[C@H](C(c3ccccc3)c3ccccc3)C[C@H]2O)c1 |  | 
28.4 nM | COc1ccc(CN[C@@H]2CO[C@H](C(c3ccc(F)cc3)c3ccc(F)cc3)C[C@H]2O)cn1 |  | 
26.5 nM | O[C@@H]1C[C@@H](C(c2ccc(F)cc2)c2ccc(F)cc2)OC[C@H]1NCc1ccc2occc2c1 |  | 
28.8 nM | COc1cccc(CN[C@@H]2CO[C@H](C(c3ccc(F)cc3)c3ccc(F)cc3)C[C@H]2O)c1 |  | 

SMILES | Ki [1] | Ki [2] | further results
Oc1ccc(CN[C@H]2CC[C@@H](C(c3ccc(F)cc3)c3ccc(F)cc3)OC2)cc1 | 13.4 nM | 334 nM | 
COc1ccc(CN[C@@H]2CO[C@H](C(c3ccccc3)c3ccccc3)C[C@H]2O)cc1F | 41.6 nM | 9.02 nM | Ki [3]: 48.2 nM
COc1ccc(CN[C@@H]2CO[C@H](C(c3ccccc3)c3ccccc3)C[C@H]2O)c(F)c1 | 9.33 nM | 64 nM | Ki [3]: 51.8 nM
Oc1ccc(CN[C@@H]2CO[C@H](C(c3ccc(F)cc3)c3ccc(F)cc3)C[C@H]2O)cc1F | 7.37 nM |  | Ki [3]: 13.1 nM
COc1ccc(CN[C@@H]2CO[C@H](C(c3ccccc3)c3ccccc3)C[C@H]2O)cn1 | 38.1 nM | 42.2 nM | Ki [3]: 44.1 nM
COc1cc(O)cc(CN[C@@H]2CO[C@H](C(c3ccc(F)cc3)c3ccc(F)cc3)C[C@H]2O)c1 | 4.91 nM |  | 
c1ccc(C(c2ccccc2)[C@@H]2CC[C@H](NCc3ccc4occc4c3)CO2)cc1 | 25.2 nM |  | Ratio Ki (Rattus norvegicus [4]): 115; Ratio Ki (Rattus norvegicus [5]): 35; Ratio Ki [6]: 20
COc1cc(CN[C@@H]2CO[C@H](C(c3ccc(F)cc3)c3ccc(F)cc3)C[C@H]2O)ccc1O | 4.76 nM |  | 
